The test system of experiment [1] is IL-8 cytokine release. Nature of the experiment: Anti-inflammatory activity: IL-8 cytokine release from UV-exposed epidermal equivalents (EPI 200 HCF). Format: cell-based, human. Particulars: summary statement. As for the experimental part:
The topical anti-inflammatory activities of 1-hydroxyl 3,5-bis(4′hydroxyl styryl)benzene and its piperazine salt were evaluated as follows.
Epidermal equivalents (EPI 200 HCF), multilayer and differentiated epidermis consisting of normal human epidermal keratinocytes, were purchased from MatTek (Ashland, Mass.). Upon receipt, epidermal equivalents were incubated for 24 hours at 37° C. in maintenance medium without hydrocortisone. Equivalents were topically treated (2 mg/cm^2) with 1-hydroxyl 3,5-bis(4′hydroxyl styryl)benzene thereof in a 70:30 Ethanol-Propylene glycol vehicle two hours before exposure to solar ultraviolet light (1000W-Oriel solar simulator equipped with a 1-mm Schott WG 320 filter; UV dose applied: 70 kJ/m^2 as measured at 360 nm). The equivalents were incubated for 24 hours at 37° C. with maintenance medium then supernatants were analyzed for IL-8 cytokine release using commercially available kits (Millipore Corp., Billerica, Mass.).

Experiment [2] deals with MMP-9. Nature of the experiment: Inhibition of TNF-α-induced MMP-9 levels in epidermal equivalents (EPI 200 HCF). In kind it is cell-based, human. To be noted: summary statement. Here is the method:
The ability of 1-hydroxyl 3,5-bis(4′hydroxyl styryl)benzene to inhibit TNF-a induced MMP-9 levels was tested at different concentrations as follows. The formation of TNF-α induced MMP-9 is involved in the undesirable breakdown of extracellular matrix in human skin.
Epidermal equivalents (EPI 200 HCF) were purchased from MatTek (Ashland, Mass.). Upon receipt, the epidermal equivalents were incubated for 24 hours at 37° C. in maintenance medium without hydrocortisone. The equivalents were topically treated (2 mg/cm^2) with 1-hydroxyl 3,5-bis(4′hydroxyl styryl)benzene extracts in a 70% ethanol/30% propylene glycol vehicle 2 hours before treatment with TNF-α (100 ng/mL). the equivalents were incubated for 48 hours at 37° C. with maintenance medium then supernatants were analyzed for MMP-9 using commercially available kits (R&D Systems, Minneapolis, Minn.).

The subject of experiment [3] is Elastin. The experiment in a line: Induction of Elastin gene expression in primary human dermal fibroblasts (quantitative PCR). Format: cell-based. To be noted: summary statement. As for the experimental part:
(§1) Primary human dermal fibroblasts (Lifeline Cell Technologies, Frederick, Md.) were grown until confluence in DMEM media (Invitrogen/Life Technologies, Carlsbad, 10 CA) with 10% FBS and 1% Penicillin-Streptomycin on 24 well tissue culture plates, followed by treatment with 1-hydroxyl 3,5-bis(4′hydroxyl styryl)benzene (0.1 ug/mL) with and without TNF-a for 48 hr. Post-treatment, cells were lysed using RLT buffer and total RNA was isolated using the RNeasy Mini Kit (Qiagen, Valencia, Calif.). Quantitative PCR was performed using the Gene Amp PCR System 9700 and 7500 Real Time PCR 15 System cycler (Applied Biosystems)/Life Technologies, Carlsbad, Calif.). Elastin (Qiagen) and Collagen1α1 primers (custom sequence-sense: 5′-TCC-CCA-GCT-GTC-TTA-TGG CT-3′ (SEQ ID NO: 1) and anti-sense: 5′-CAG-GCA-CGG-AAA-TTC-CTC-C-3′ (SEQ ID NO: 2)) were used. The housekeeping gene GAPDH was used for normalization (custom primer sequence: F 5′-ATC-TCT-GCC-CCC-TCT-GCT-G-3′ (SEQ ID NO: 3) and R 5′-ATG-GTT-CAC-ACC-CAT-GAC-GA-3′ (SEQ ID NO: 4); Invitrogen/Life Technologies, Carlsbad, Calif.). Fold-changes in PCR (normalized to 5 GAPDH) were calculated from untreated.

The test system of experiment [4] is Collagen 1A. The experiment in a line: Induction of Collagen1A gene expression in primary human dermal fibroblasts (quantitative PCR). To be noted: for Collagen 1A Normalized Fold-change in PCR (Mean): 48 hr, normalized to GAPDH, from untreated. Format: cell-based. Here is the method:
as §1

Molecules are shown by their SMILES.

With `Oc1ccc(C=Cc2cc(O)cc(C=Cc3ccc(O)cc3)c2)cc1` [1-hydroxyl 3,5-bis(4′hydroxylstyryl)benzene], the “reduction in UV-induced inflammation in human skin cells (in words)” value in experiment [1] is given as “strong reduction”.
On to `Oc1ccc(/C=C/c2cc(O)cc(/C=C/c3ccc(O)cc3)c2)cc1` [1-hydroxyl 3,5-bis(4′hydroxylstyryl)benzene], for which, in experiment [2], the “formation of TNF-α induced MMP-9 (in words)” value is reported as “inhibited”. Also, the “expression of genes associated with elastin production (in words)” value in experiment [3] is on record as “increased”. Besides, the “Collagen 1A Normalized Fold-change in PCR (Mean)” value in experiment [4] (0.1 ug/mL with TNF-α (10 ng/mL)) amounted to 1.36; in experiment [4] (0.1 ug/mL, without TNF-a), 2.96. In experiment [4] (summary statement), the “expression of genes associated with collagen production (in words)” value is given as “increased”. Moreover, the “reduction in UV-induced inflammation in human skin cells (in words)” value in experiment [1] was “strong reduction”.

(Values after patent US8846013B2, “Topical application of 1-hydroxyl-3,5-BIS(4′hydroxy styryl)benzene” (Johnson & Johnson Consumer Companies, Inc., priority 2012, dated 2014).)
